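The compound was tested at five concentrations on cells cultured in 96-well plates, with a 48-hour exposure period. Definition used: TGI = concentration required for complete inhibition of growth.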
How the values were obtained:
Assay in all cases: NCI anticancer screen, dose series, 48 h
786-0 renal = test system: 786-0 renal
A498 renal = test system: A498 renal
A549 NSCLC = test system: A549 NSCLC
ACHN renal = test system: ACHN renal
BT-549 breast = test system: BT-549 breast
CAKI-1 renal = test system: CAKI-1 renal
CCRF-CEM leukemia = test system: CCRF-CEM leukemia
COLO 205 colon = test system: COLO 205 colon
DU-145 prostate = test system: DU-145 prostate
EKVX NSCLC = test system: EKVX NSCLC
HCC-2998 colon = test system: HCC-2998 colon
HCT-116 colon = test system: HCT-116 colon
HCT-15 colon = test system: HCT-15 colon
HL-60(TB) leukemia = test system: HL-60(TB) leukemia
HOP-62 NSCLC = test system: HOP-62 NSCLC
HOP-92 NSCLC = test system: HOP-92 NSCLC
HS 578T breast = test system: HS 578T breast
HT29 colon = test system: HT29 colon
IGROV1 ovarian = test system: IGROV1 ovarian
K-562 leukemia = test system: K-562 leukemia
KM12 colon = test system: KM12 colon
LOX IMVI melanoma = test system: LOX IMVI melanoma
M14 melanoma = test system: M14 melanoma
MALME-3M melanoma = test system: MALME-3M melanoma
MCF7 breast = test system: MCF7 breast
MDA-MB-231 breast = test system: MDA-MB-231 breast
MDA-MB-435 = test system: MDA-MB-435
MDA-N = test system: MDA-N
MOLT-4 leukemia = test system: MOLT-4 leukemia
NCI-H226 lung = test system: NCI-H226 lung
NCI-H23 lung = test system: NCI-H23 lung
NCI-H460 lung = test system: NCI-H460 lung
NCI-H522 lung = test system: NCI-H522 lung
NCI/ADR-RES ovarian = test system: NCI/ADR-RES ovarian
OVCAR-3 ovarian = test system: OVCAR-3 ovarian
OVCAR-4 ovarian = test system: OVCAR-4 ovarian
OVCAR-5 ovarian = test system: OVCAR-5 ovarian
OVCAR-8 ovarian = test system: OVCAR-8 ovarian
PC-3 prostate = test system: PC-3 prostate
RPMI-8226 leukemia = test system: RPMI-8226 leukemia
RXF 393 renal = test system: RXF 393 renal
SF-268 CNS = test system: SF-268 CNS
SF-295 CNS = test system: SF-295 CNS
SF-539 CNS = test system: SF-539 CNS
SK-MEL-2 melanoma = test system: SK-MEL-2 melanoma
SK-MEL-28 melanoma = test system: SK-MEL-28 melanoma
SK-MEL-5 melanoma = test system: SK-MEL-5 melanoma
SK-OV-3 ovarian = test system: SK-OV-3 ovarian
SN12C renal = test system: SN12C renal
SNB-19 CNS = test system: SNB-19 CNS
SNB-75 CNS = test system: SNB-75 CNS
SR leukemia = test system: SR leukemia
SW-620 colon = test system: SW-620 colon
T-47D breast = test system: T-47D breast
TK-10 renal = test system: TK-10 renal
U251 CNS = test system: U251 CNS
UACC-257 melanoma = test system: UACC-257 melanoma
UACC-62 melanoma = test system: UACC-62 melanoma
UO-31 renal = test system: UO-31 renal
DLD-1 colon = test system: DLD-1 colon
DMS 273 small cell lung = test system: DMS 273 small cell lung
KM20L2 colon = test system: KM20L2 colon
LXFL 529 NSCLC = test system: LXFL 529 NSCLC
M19-MEL melanoma = test system: M19-MEL melanoma

Measured: TGI

COc1cccc(CCN2CCN(CCCc3ccccc3)CC2)c1
45.2 µM: COLO 205 colon
40.6 µM: SK-MEL-5 melanoma
64.4 µM: HOP-92 NSCLC
60.6 µM: M14 melanoma
67.9 µM: NCI-H522 lung
not listed: DLD-1 colon | DMS 273 small cell lung | KM20L2 colon | LXFL 529 NSCLC | M19-MEL melanoma
> 100 µM: all other assays above

Cc1ccc(C(N)=O)cc1N=NN(C)C
not listed: A498 renal | BT-549 breast | CCRF-CEM leukemia | DU-145 prostate | HCT-116 colon | HL-60(TB) leukemia | HS 578T breast | K-562 leukemia | MALME-3M melanoma | MCF7 breast | MDA-MB-231 breast | MDA-MB-435 | MDA-N | MOLT-4 leukemia | NCI-H226 lung | NCI/ADR-RES ovarian | OVCAR-5 ovarian | PC-3 prostate | RPMI-8226 leukemia | RXF 393 renal | SF-539 CNS | SNB-75 CNS | SR leukemia | T-47D breast
> 100 µM: all other assays above

CN(C)c1ccc(/C(F)=C(F)/C(F)=C(F)/C(F)=C(\F)c2ccc(Br)cc2)cc1
> 84 µM: CAKI-1 renal
> 63.7 µM: DU-145 prostate
38.7 µM: RXF 393 renal
22.2 µM: 786-0 renal
92.9 µM: SNB-75 CNS
> 60.5 µM: OVCAR-3 ovarian
22.4 µM: NCI/ADR-RES ovarian
> 79.6 µM: MOLT-4 leukemia
> 25.5 µM: HCT-116 colon | SN12C renal
63.2 µM: COLO 205 colon
> 78.5 µM: SNB-19 CNS
10.7 µM: MDA-MB-435
> 78.8 µM: CCRF-CEM leukemia
> 71.8 µM: MALME-3M melanoma
> 52 µM: PC-3 prostate
44.7 µM: U251 CNS
> 95.5 µM: A498 renal
98 µM: HT29 colon
> 52.1 µM: SF-295 CNS
63.4 µM: NCI-H23 lung
52.6 µM: HS 578T breast
7.54 µM: MDA-N
> 69.7 µM: M14 melanoma
> 96 µM: OVCAR-8 ovarian
27.1 µM: NCI-H522 lung
> 75 µM: HL-60(TB) leukemia
not listed: DLD-1 colon | DMS 273 small cell lung | KM20L2 colon | LXFL 529 NSCLC | M19-MEL melanoma
> 100 µM: all other assays above

COc1cccc(N2C(=O)C3c4[nH]c5ccccc5c4C4CCCC4C3C2=O)c1 (stereo unspecified)
5.77 µM: SNB-75 CNS
5.1 µM: A498 renal
6.25 µM: HOP-62 NSCLC
4.41 µM: 786-0 renal
7.59 µM: NCI-H226 lung
7.16 µM: HCT-116 colon
8.91 µM: HS 578T breast
8.22 µM: MALME-3M melanoma
4.09 µM: SR leukemia
5.63 µM: MDA-MB-231 breast
4.76 µM: OVCAR-4 ovarian
9.02 µM: SN12C renal
not listed: UO-31 renal | DLD-1 colon | DMS 273 small cell lung | KM20L2 colon | LXFL 529 NSCLC | M19-MEL melanoma
> 10 µM: all other assays above

— PubChem BioAssay (NCI)
